Source: ChEMBL document CHEMBL4665869, “New thiazolopyrimidine as anticancer agents: Synthesis, biological evaluation, DNA binding, molecular modeling and ADMET study” (Bioorg Med Chem Lett, 2020)

What was measured:
[1] = tested on: U-251; experiment: Growth inhibition of human U-251 cells at 10 uM relative to control; assay type: functional; conditions: read-out: GI
[2] = tested on: MDA-MB-231; experiment: Growth inhibition of human MDA-MB-231 cells at 10 uM relative to control; assay type: functional; conditions: read-out: GI
[3] = tested on: HCC 2998; experiment: Growth inhibition of human HCC 2998 cells at 10 uM relative to control; assay type: functional; conditions: read-out: GI
[4] = tested on: NCI-H322M; experiment: Growth inhibition of human NCI-H322M cells at 10 uM relative to control; assay type: functional; conditions: read-out: GI
[5] = tested on: 786-0; experiment: Growth inhibition of human 786-0 cells at 10 uM relative to control; assay type: functional; conditions: read-out: GI
[6] = tested on: A549; experiment: Growth inhibition of human A549 cells at 10 uM relative to control; assay type: functional; conditions: read-out: GI
[7] = tested on: BT-549; experiment: Growth inhibition of human BT-549 cells at 10 uM relative to control; assay type: functional; conditions: read-out: GI
[8] = tested on: NCI-H23; experiment: Growth inhibition of human NCI-H23 cells at 10 uM relative to control; assay type: functional; conditions: read-out: GI
[9] = tested on: SF-295; experiment: Growth inhibition of human SF-295 cells at 10 uM relative to control; assay type: functional; conditions: read-out: GI
[10] = tested on: SF-539; experiment: Growth inhibition of human SF-539 cells at 10 uM relative to control; assay type: functional; conditions: read-out: GI
[11] = tested on: UACC-62; experiment: Growth inhibition of human UACC-62 cells at 10 uM relative to control; assay type: functional; conditions: read-out: GI
[12] = tested on: SF-268; experiment: Growth inhibition of human SF-268 cells at 10 uM relative to control; assay type: functional; conditions: read-out: GI
[13] = tested on: NCI-H226; experiment: Growth inhibition of human NCI-H226 cells at 10 uM relative to control; assay type: functional; conditions: read-out: GI
[14] = tested on: T47D; experiment: Growth inhibition of human T47D cells at 10 uM relative to control; assay type: functional; conditions: read-out: GI
[15] = tested on: PC-3; experiment: Growth inhibition of human PC-3 cells at 10 uM relative to control; assay type: functional; conditions: read-out: GI
[16] = tested on: ACHN; experiment: Growth inhibition of human ACHN cells at 10 uM relative to control; assay type: functional; conditions: read-out: GI
[17] = tested on: COLO 205; experiment: Growth inhibition of human COLO 205 cells at 10 uM relative to control; assay type: functional; conditions: read-out: GI
[18] = tested on: OVCAR-5; experiment: Growth inhibition of human OVCAR-5 cells at 10 uM relative to control; assay type: functional; conditions: read-out: GI
[19] = tested on: SK-MEL-2; experiment: Growth inhibition of human SK-MEL-2 cells at 10 uM relative to control; assay type: functional; conditions: read-out: GI
[20] = tested on: MDA-MB-468; experiment: Growth inhibition of human MDA-MB-468 cells at 10 uM relative to control; assay type: functional; conditions: read-out: GI
[21] = tested on: RPMI-8226; experiment: Growth inhibition of human RPMI-8226 cells at 10 uM relative to control; assay type: functional; conditions: read-out: GI
[22] = target: DNA; experiment: Displacement of methyl green from DNA (unknown origin) assessed as DNA intercalation after 24 hrs by colorimetric assay; assay type: nucleic-acid assay
[23] = tested on: MCF7; experiment: Growth inhibition of human MCF7 cells at 10 uM relative to control; assay type: functional; conditions: read-out: GI
[24] = tested on: LOX IMVI; experiment: Growth inhibition of human LOX IMVI cells at 10 uM relative to control; assay type: functional; conditions: read-out: GI
[25] = tested on: HCT-116; experiment: Growth inhibition of human HCT-116 cells at 10 uM relative to control; assay type: functional; conditions: read-out: GI
[26] = tested on: SW-620; experiment: Growth inhibition of human SW-620 cells at 10 uM relative to control; assay type: functional; conditions: read-out: GI
[27] = tested on: OVCAR-8; experiment: Growth inhibition of human OVCAR-8 cells at 10 uM relative to control; assay type: functional; conditions: read-out: GI
[28] = tested on: NCI-H522; experiment: Growth inhibition of human NCI-H522 cells at 10 uM relative to control; assay type: functional; conditions: read-out: GI
[29] = tested on: MOLT-4; experiment: Growth inhibition of human MOLT-4 cells at 10 uM relative to control; assay type: functional; conditions: read-out: GI

CCOC(=O)C1=CSC2=NC(/C=C/c3ccc(Cl)cc3)=CC(c3ccc(Cl)cc3)N12 (centres undefined)
79.28 µg/mL: IC50 [22]
< 10%: inhibition of growth at 10 µM [2] | inhibition of growth at 10 µM [3] | inhibition of growth at 10 µM [4] | inhibition of growth at 10 µM [5] | inhibition of growth at 10 µM [6] | inhibition of growth at 10 µM [7] | inhibition of growth at 10 µM [8] | inhibition of growth at 10 µM [9] | inhibition of growth at 10 µM [10] | inhibition of growth at 10 µM [11] | inhibition of growth at 10 µM [12] | inhibition of growth at 10 µM [13] | inhibition of growth at 10 µM [14] | inhibition of growth at 10 µM [15] | inhibition of growth at 10 µM [16] | inhibition of growth at 10 µM [17] | inhibition of growth at 10 µM [18] | inhibition of growth at 10 µM [19] | inhibition of growth at 10 µM [20] | inhibition of growth at 10 µM [21] | inhibition of growth at 10 µM [23] | inhibition of growth at 10 µM [24] | inhibition of growth at 10 µM [25] | inhibition of growth at 10 µM [26] | inhibition of growth at 10 µM [27] | inhibition of growth at 10 µM [28]
16.7%: inhibition of growth at 10 µM [29]
14.6%: inhibition of growth at 10 µM [1]
